Results taken from article PMC7247425, “MRP1-Collateral Sensitizers as a Novel Therapeutic Approach in Resistant Cancer Therapy: An In Vitro and In Vivo Study in Lung Resistant Tumor” (International Journal of Molecular Sciences, 2020).

Experiments:
A549/DX cells [1] = test: Cell viability (MTT) of A549/DX cells at 72 h, alone and in co-administration; type: cell-based, human
Procedure: Indeed, the accurate detection of cell viability in A549 cells was critical in calculating the SR in a reliable manner.
First, we wondered if there was a correlation between the inhibition of the MRP1 protein and the CS properties of the compounds.
(§1) The determination of cell growth was performed using an MTT assay at 24 or 72 h. On day 1, 10,000 cells/well were seeded into 96-well plates in a volume of 100 μL. […] In all the experiments, the various drug solvents (ethanol, DMSO) were added in each control to evaluate a possible solvent cytotoxicity. After the established incubation time with drugs, 10 μL MTT (0.5 mg/mL) was added to each well, and after 3 h incubation at 37°C, the supernatant was removed. The formazan crystals were solubilized using 100 μL of DMSO and the absorbance values at 570 and 630 nm were determined on the microplate reader Victor 3 from PerkinElmer Life Sciences. The absorbance of the untreated cells was considered equal to 100% cell viability; the viability of cells measured in each experimental condition was expressed as a percentage of viable cells in the considered condition vs. the viability of the untreated cells.

A549/DX cells [2] = test: In vivo tumor growth of A549/DX xenografts; parameters: species or system nu/nu BALB/C mice; conditions: A549/DX xenografts, 50 mg/kg cis-Pt i.p.
Procedure: In order to translate in vivo the capability of F397, F400, and F421 to act as “sensitizers”, A549/DX cells were implanted in immune-deficient BALB/C mice, and once the tumor reached the volume of 50 mm^3, the mice were randomized and treated […] with the vehicle (saline solution) and/or cis-Pt.
(§2) Here, 1 × 10^6 A549/DX cells were mixed with 100 μl Matrigel implanted in 6-week-old female nu/nu BALB/C mice (Charles River Laboratories Italia, Calco, Italy), housed (5 per cage) under 12 h light/dark cycle, with food and drinking provided ad libitum. Tumor growth was measured daily by caliper, according to the equation (LxW2)/2, where L = tumor length and W = tumor width. When the tumor reached the volume of 50 mm^3, mice (n = 8/group) were randomized and treated as reported in the following groups, treated on day 1, 7, and 14 after randomization: (1) vehicle group (ctrl), treated intraperitoneally (i.p.) with 100 µL saline solution; (2) cis-Pt group, treated i.p. with 50 mg/kg cis-Pt, dissolved in 100 µL water/10% DMSO solution, according to Kopecka et al., 2015 [53]; (3) F397 group, treated i.p. with 750 nmoles of the compound, dissolved in 100 µL water/10% DMSO solution, corresponding to the maximum tolerated dose (not shown and Table 2); (4) F421 group, treated i.p. with 750 nmoles of the compound, dissolved in 100 µL water/10% DMSO solution i.p, corresponding to the maximum tolerated dose (not shown and Table 2); (5) cis-Pt/F397 group, treated i.p. with 50 mg/kg Cis-Pt and 750 nmoles of F397; (6) cis-Pt/F421 group, treated i.p. with 50 mg/kg cis-Pt and 750 nmoles of F421; (7) MK571 group, treated i.p. with 3 mg/kg MK571 dissolved in 100 µL water/10% DMSO solution, according to Jones et al., 1989 [56]; (8) MK571/F397 group, treated i.p. with 3 mg/kg MK571 and 750 nmoles of F397; (9) MK571/F421 group, treated i.p. with 3 mg/kg MK571 and 750 nmoles of F421. Tumor volumes were monitored daily. Animals were euthanized at day 21 after randomization with zolazepam (0.2 mL/kg) and xylazine (16 mg/kg). Lactate dehydrogenase (LDH), aspartate aminotransferase (AST), alanine aminotransferase (ALT), alkaline phosphatase (AP), creatinine, and creatine phosphokinase (CPK) were measured on blood samples collected immediately after euthanasia, using commercially available kits from Beckman Coulter Inc. (Beckman Coulter, Miami, FL, USA).

[3] = Hemato-chemical parameters and tolerability in treated mice; type: in vivo; conditions: blood after euthanasia day 21; i.p. treatment day 1, 7, 14; means ± SD, n = 8
Procedure: as §2

MRP1 = MRP1 (Homo sapiens, UniProt P33527); test: Calcein-AM transport inhibition in MDCK-MRP1 cells (MRP1 activity)
Procedure: Each cell line (30,000 cells per well) was seeded into a black CulturePlate 96/well plate with a 100 μL medium and allowed to become confluent overnight. […] In these experimental conditions, the Calcein cell accumulation in the absence and in the presence of the tested compounds was evaluated and the fluorescence basal level was estimated with the untreated cells. In treated wells, the increase in fluorescence with respect to the basal level was measured. EC50 values were determined by fitting the fluorescence increase percentage vs. log(dose).

MDCK-MRP1 cells = test: Antiproliferative MTT assay in MDCK-wt and MDCK-MRP1 cells, selectivity ratio; type: cell-based, canine; conditions: EC50 of MDCK cells/EC50 of MDCK-MRP1 cells
Procedure: Within the search for novel CS agents acting on MRP1 proteins, the compounds selected among the different series of sigma-2 ligands were investigated for their activity at MRP1, paralleled with their cytotoxicity in the parental Madin–Darby canine kidney (MDCK-wt) cells and in the MDR-derived cells (MDCK-MRP1) for the determination of their SR (EC50 parental cells/EC50 MDR cells). The activity at the MRP1 pump was determined measuring the transport inhibition of the pro-fluorescent probe Calcein-AM, an MRP1 substrate, in the MRP1-overexpressing cell line (MDCK-MRP1) by the in vitro biological assay usually performed to study an MRP1 interaction. […] The SR was measured as the EC50 of the MDCK cells/EC50 of the MDCK-MRP1 cells.
as §1

Sequence of MRP1 (P33527 whole entry): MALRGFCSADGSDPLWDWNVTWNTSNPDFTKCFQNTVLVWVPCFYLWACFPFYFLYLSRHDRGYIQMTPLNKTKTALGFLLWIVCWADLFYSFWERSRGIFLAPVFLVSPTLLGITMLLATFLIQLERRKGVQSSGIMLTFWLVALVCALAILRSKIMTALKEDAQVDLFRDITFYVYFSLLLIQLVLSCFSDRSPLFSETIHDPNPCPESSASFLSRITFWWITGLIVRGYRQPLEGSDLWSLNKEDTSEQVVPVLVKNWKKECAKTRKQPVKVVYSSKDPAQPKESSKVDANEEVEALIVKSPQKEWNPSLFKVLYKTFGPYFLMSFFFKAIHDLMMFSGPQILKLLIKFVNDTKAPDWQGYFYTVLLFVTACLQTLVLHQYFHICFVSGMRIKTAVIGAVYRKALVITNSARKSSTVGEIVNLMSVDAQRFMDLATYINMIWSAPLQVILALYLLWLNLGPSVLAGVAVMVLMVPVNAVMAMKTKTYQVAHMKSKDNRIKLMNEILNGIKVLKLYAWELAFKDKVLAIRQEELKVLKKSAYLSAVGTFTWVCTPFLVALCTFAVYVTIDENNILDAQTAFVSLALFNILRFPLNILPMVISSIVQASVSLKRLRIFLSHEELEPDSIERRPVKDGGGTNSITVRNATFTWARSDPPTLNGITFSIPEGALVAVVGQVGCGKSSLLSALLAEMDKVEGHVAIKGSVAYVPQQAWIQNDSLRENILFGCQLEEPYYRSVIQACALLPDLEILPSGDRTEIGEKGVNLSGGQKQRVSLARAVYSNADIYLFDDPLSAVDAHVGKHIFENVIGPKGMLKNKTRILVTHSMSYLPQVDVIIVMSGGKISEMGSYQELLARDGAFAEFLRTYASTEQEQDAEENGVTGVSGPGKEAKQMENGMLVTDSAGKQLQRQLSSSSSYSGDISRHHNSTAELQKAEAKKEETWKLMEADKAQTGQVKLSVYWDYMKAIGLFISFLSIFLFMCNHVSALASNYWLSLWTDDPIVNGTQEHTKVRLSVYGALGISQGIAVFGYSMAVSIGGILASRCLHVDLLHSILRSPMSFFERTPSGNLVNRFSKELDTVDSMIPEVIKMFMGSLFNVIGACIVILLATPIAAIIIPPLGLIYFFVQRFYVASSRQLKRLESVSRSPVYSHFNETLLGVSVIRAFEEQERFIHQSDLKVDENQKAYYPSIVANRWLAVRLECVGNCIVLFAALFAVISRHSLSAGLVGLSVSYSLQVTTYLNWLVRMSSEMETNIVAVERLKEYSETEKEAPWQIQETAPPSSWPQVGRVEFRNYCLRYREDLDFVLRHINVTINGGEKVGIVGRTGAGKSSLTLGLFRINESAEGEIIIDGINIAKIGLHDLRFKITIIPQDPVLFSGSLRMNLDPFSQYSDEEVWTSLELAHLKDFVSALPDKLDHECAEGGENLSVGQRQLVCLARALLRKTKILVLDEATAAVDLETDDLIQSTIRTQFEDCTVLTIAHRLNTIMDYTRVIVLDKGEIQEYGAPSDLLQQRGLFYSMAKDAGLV

EC50 (MRP1) | Structure (SMILES) | Sensitivity to cis-Pt co-administrated with MK571 (A549/DX cells [1]; cis-Pt 25 μM + MK571 25 μM) | Tumor growth, cis-Pt alone (A549/DX cells [2]) | ALT [3] | AP [3] | AST [3] | CPK [3] | LDH [3] | Cytotoxicity / antiproliferative effect alone (A549/DX cells [1]; 25 μM alone) | SR (selectivity ratio) (MDCK-MRP1 cells)
 | N.N.[Cl][Pt][Cl] [Cis-Pt, cis-platinum, reference compound] | restored when co-administrated with MK571 | resistance of A549/DX against the standard chemotherapy regimen | 41 ± 9 U/L | 129 ± 14 U/L | 91 ± 34 U/L | 259 ± 98 U/L | 7092 ± 542 U/L |  | 
 | CN(C)C(=O)CCSC(SCCC(=O)O)c1cccc(/C=C/c2ccc3ccc(Cl)cc3n2)c1 (stereo not drawn) [MK571, reference compound] |  |  | 41 ± 7 U/L | 117 ± 33 U/L | 101 ± 33 U/L | 334 ± 81 U/L | 7141 ± 927 U/L | not cytotoxic | 
23.2 ± 4.5 µM | Fc1ccc(-n2cc(CCCCN3CCC4(CC3)OCc3ccccc34)c3ccccc32)cc1 [Siramesine, siramesine, reference compound] |  |  |  |  |  |  |  |  | 0.56
